Results from US20100008965A1, “BIOCOMPATIBLE MEDICAL PRODUCTS HAVING ENHANCED ANTI-THROMBOGENIC PROPERTIES” (priority 2008, published 2010).

Assays:
HCAEC [1] = assay: HCAEC cell binding assay to immobilized fibronectin polypeptides (crystal violet); assay type: cell-based, human; settings: immobilized, 8 h
Procedure: (§1) Human coronary artery endothelial cell (HCAEC) and human umbilical vein endothelial cell (HUVEC) primary human cells were obtained (Cambrex Corporation, East Rutherford, N.J.) and maintained according to the manufacturer's instructions at 37° C. and 5% CO2. HCAEC were grown in microvascular endothelial cell medium (EBM-2 MV, Cambrex) supplemented with 5% fetal bovine serum, 0.1% human epidermal growth factor, 0.04% hydrocortisone, 0.1% vascular endothelial growth factor, 0.4% human fibroblast growth factor-B, 0.1% R^3-insulin-like growth factor-1, 0.1% ascorbic acid, and 0.1% gentamicin and amphotericin-B (GA-1000). HUVEC were grown in endothelial cell medium (EBM, Cambrex) supplemented with 2% fetal bovine serum, 0.4% bovine brain extract, 0.1% human epidermal growth factor, 0.1% hydrocortisone, and 0.1% gentamicin and amphotericin-B (GA-1000). HCAEC and HUVEC were subcultured at 90-95% confluence using 0.05% trypsin-EDTA (Invitrogen, Carlsbad, Calif.) and used for experiments between passages 3-7 (HUVEC) or 5-11 (HCAEC).
HCAEC or HUVEC cell binding assays to immobilized recombinant fibronectin polypeptides were performed in order to ascertain which polypeptide(s) maximally support(s) alpha-4 integrin-mediated cell adhesion. Connecting Segment-1 (SEQ ID NO:1), EILDV (SEQ ID NO:2), RGDS (SEQ ID NO:3) (positive control), RGES (SEQ ID NO:4) (negative control), and EILEVPST (SEQ ID NO:5) (negative control) and were immobilized by drying overnight at room temperature in Immobilizer™ Amino 96-well microplates (Nalge Nunc International, Rochester, N.Y.). RGES, EILDV, and EILEVPST were incubated at a molar equivalent concentration equal to 200 μg RGDS per well. CS-1 was incubated at 50 μg/well. On a molar basis per well, this equates to approximately twenty-fold less CS-1 relative to RGDS. […] Cells were manually counted, and their concentration adjusted to yield a total cell population of 5×10^4 cells/well. […] Spectrometric absorbance values were read at 562 nm at room temperature using a ThermoMax microplate reader (Molecular Devices Corporation, Sunnyvale, Calif.).

HUVEC [2] = assay: alpha-4 integrin function blocking cell binding assay, HUVEC; assay type: cell-based, human; settings: 0.5 μg antibody per 5×10^4 cells, 8 h; CS-1 p=0.1
Procedure: (§2) To verify that HCAEC or HUVEC adhesion to immobilized CS-1 polypeptides is specifically mediated via alpha-4-containing integrin heterodimers, alpha-4 integrin function blocking cell binding assays were performed. RGDS, EILEVPST, and CS-1 polypeptides were immobilized in Immobilizer™ Amino 96-well microplates. Microplate wells were prepared as described above. Trypsinized HCAEC or HUVEC suspensions were manually counted, aliquoted into two groups, and incubated for one hour on ice with one of the following antibodies at a concentration of 0.5 μg antibody per 5×10^4 cells: (a) mouse monoclonal IgG1 anti-human alpha-4-integrin (CD49d, clone P1H4) (Chemicon), or (b) mouse monoclonal IgG1 anti-human isotype-matched control (R&D Systems). Next, 5×10^4 cells suspended in their respective basal medium were added to wells containing immobilized peptide polypeptides and incubated for eight hours at 37° C. and a 5% CO2 atmosphere. Adherent cells were analyzed via crystal violet staining as described previously.
To differentiate whether HCAEC and HUVEC adhere to CS-1 peptides via an alpha-4 integrin-specific interaction, HCAEC and HUVEC adhesion assays to CS-1, RGDS, and EILEVPST peptides were performed following one hour endothelial cell incubations with either an alpha-4 integrin function blocking antibody or an IgG isotype-matched control antibody. […]

HUVEC [3] = assay: HUVEC cell binding assay to immobilized fibronectin polypeptides (crystal violet); assay type: cell-based, human; settings: 8 h
Procedure: as §1, with “HCAEC and HUVEC were subcultured at 90-95% confluence using 0.05% trypsin-EDTA (Invitrogen, Carlsbad, Calif.) and used for experiments between passages 3-7 (HUVEC) or 5-11 (HCAEC).” left out
HCAEC or HUVEC cell binding assays to immobilized recombinant fibronectin polypeptides were performed in order to ascertain which polypeptide(s) maximally support(s) alpha-4 integrin-mediated cell adhesion. […] Cells were manually counted, and their concentration adjusted to yield a total cell population of 5×10^4 cells/well. […] Spectrometric absorbance values were read at 562 nm at room temperature using a ThermoMax microplate reader (Molecular Devices Corporation, Sunnyvale, Calif.).

HCAEC [4] = assay: alpha-4 integrin function blocking cell binding assay, HCAEC; assay type: cell-based, human; settings: 0.5 μg antibody per 5×10^4 cells, 8 h; CS-1 p<0.05
Procedure: as §2
To differentiate whether HCAEC and HUVEC adhere to CS-1 peptides via an alpha-4 integrin-specific interaction, HCAEC and HUVEC adhesion assays to CS-1, RGDS, and EILEVPST peptides were performed following one hour endothelial cell incubations with either an alpha-4 integrin function blocking antibody or an IgG isotype-matched control antibody. The EILEVPST peptide served as the negative control cell adhesion peptide. The RGDS peptide served as an additional control. Endothelial cell adhesion to RGDS is primarily mediated by alpha-5-beta-1 integrins. Therefore, alpha-4 integrin function blocking should not have a significant effect on adhesion to RGDS. Thus, specificity of HCAEC and HUVEC binding to CS-1 via alpha-4 integrins could be tested.

[5] = molecular target: human alpha-4 integrin (CD49d), alpha-4-containing integrin heterodimers on endothelial cells (human) (UniProt P13612); assay: flow cytometry, FITC-BU49 on fixed human foreskin fibroblasts, against isotype control
human alpha-4 integrin (CD49d), alpha-4-containing integrin heterodimers on endothelial cells (human), sequence (P13612 34-1032, one chain of several): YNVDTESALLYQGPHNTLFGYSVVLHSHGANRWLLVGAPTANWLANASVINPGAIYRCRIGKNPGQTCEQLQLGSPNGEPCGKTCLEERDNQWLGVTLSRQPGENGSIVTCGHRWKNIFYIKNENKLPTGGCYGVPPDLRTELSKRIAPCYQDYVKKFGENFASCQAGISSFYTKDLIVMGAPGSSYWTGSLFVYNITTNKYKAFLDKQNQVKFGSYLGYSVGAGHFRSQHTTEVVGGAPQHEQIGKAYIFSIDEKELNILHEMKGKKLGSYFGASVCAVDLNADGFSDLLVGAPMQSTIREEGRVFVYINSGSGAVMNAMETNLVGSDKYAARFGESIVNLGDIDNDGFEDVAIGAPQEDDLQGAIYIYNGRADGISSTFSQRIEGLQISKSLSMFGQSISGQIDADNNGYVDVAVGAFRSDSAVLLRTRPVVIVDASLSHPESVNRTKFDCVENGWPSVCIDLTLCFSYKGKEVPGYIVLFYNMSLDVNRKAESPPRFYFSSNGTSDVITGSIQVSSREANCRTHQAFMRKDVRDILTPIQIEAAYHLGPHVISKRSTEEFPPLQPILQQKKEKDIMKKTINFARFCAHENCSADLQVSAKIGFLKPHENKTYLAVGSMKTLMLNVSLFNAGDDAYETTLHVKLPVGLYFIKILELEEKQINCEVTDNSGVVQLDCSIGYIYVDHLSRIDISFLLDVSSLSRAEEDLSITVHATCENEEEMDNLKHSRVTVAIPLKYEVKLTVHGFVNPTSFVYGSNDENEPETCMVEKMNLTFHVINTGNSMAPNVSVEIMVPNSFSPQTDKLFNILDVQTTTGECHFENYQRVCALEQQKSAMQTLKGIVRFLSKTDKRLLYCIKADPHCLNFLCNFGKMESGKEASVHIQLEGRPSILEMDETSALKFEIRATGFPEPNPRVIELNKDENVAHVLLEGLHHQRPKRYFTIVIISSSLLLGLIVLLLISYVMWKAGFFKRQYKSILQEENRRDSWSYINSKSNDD

[6] = molecular target: human alpha-4 integrin (CD49d), alpha-4-containing integrin heterodimers on endothelial cells (human) (UniProt P13612); assay: flow cytometry, FITC-BU49 on fixed HCAEC, against isotype control
[7] = molecular target: human alpha-4 integrin (CD49d), alpha-4-containing integrin heterodimers on endothelial cells (human) (UniProt P13612); assay: flow cytometry, FITC-BU49 on fixed HUVEC, against isotype control
human platelets [8] = assay: DiOC6-labeled platelet adhesion imaging under shear flow; assay type: cell-based; settings: 16.5 dyne/cm^2, one hour
Procedure: To visualize shear stress-mediated platelet adhesion to the immobilized ECM proteins, non-radiolabeled non-activated or thrombin-activated human platelets were prepared as described above, but were first incubated for ten minutes at room temperature with a 10 μM DiOC6 (dihexaoxacarbocyanine iodide) (Sigma) solution prior to being subjected to flow for one hour at a shear stress τ=16.5 dyne/cm^2. Post-flow, all slides were rinsed twice with PBS and fixed with 4% (w/v) paraformaldehyde. Platelet adhesion was visualized on a Nikon Diaphot 200 inverted epifluorescence microscope (Nikon) at 488 nm using a 40× objective. Images were captured using an Olympus DP70 digital camera (Olympus America, Inc.) and analyzed using the Adobe® Photoshop® software package version 6.0 (Adobe Systems Incorporated, San Jose, Calif.).

human platelets [9] = assay: 51Cr-labeled platelet adhesion to immobilized ECM proteins under shear flow; assay type: cell-based; settings: 16.5 dyne/cm^2, one hour; non-activated and thrombin-activated; versus CS-1 and glass control
Procedure: Characterization of human platelet adhesion to immobilized extracellular matrix proteins was performed by subjecting non-activated or thrombin-activated human platelets to a shear stress τ=16.5 dyne/cm^2 for one hour using a peristaltic pump-driven parallel plate fluid flow system. Washed human platelets were isolated as described above, resuspended in platelet washing buffer (PWB), and adjusted to a final concentration of approximately 0.5-1.0×10^9 platelets/ml. The platelet suspensions were incubated for thirty minutes at room temperature with 25 μCi/ml Na2^51CrO4 (GE Healthcare, Piscataway, N.J.). ^51Cr-labeled platelets were centrifuged at 2000×g for three minutes at room temperature and resuspended in 20 ml fresh frozen plasma previously thawed and warmed to 37° C. The ^51Cr-platelet/plasma solution was distributed equally (5 ml) into each of four reservoirs containing an additional 50 ml of 37° C. human plasma. For thrombin-activated platelets, 1 U thrombin (Sigma) per 3 ml platelet suspension was added immediately prior to aliquoting the ^51Cr-platelet/plasma solution into the flow loop reservoirs.
75×38×1 mm glass microscope slides were coated with ECM proteins as described above. Slides were incubated for one hour at room temperature with a 0.25% (w/v) sterile-filtered BSA solution. […]

[10] = molecular target: human alpha-4 integrin (CD49d), alpha-4-containing integrin heterodimers on endothelial cells (human, UniProt P13612 34-1032); assay: cell-based or functional assay
human alpha-4 integrin (CD49d), alpha-4-containing integrin heterodimers on endothelial cells, sequence (P13612 34-1032, one chain of several): as above

EILDV (listed as Homo sapiens) [fibronectin IIICS peptide]
HCAEC adhesion compared with RGES control (HCAEC [1]): not statistically different than the RGES control

EILEVPST (listed as Homo sapiens) [alpha-4 integrin-mediated negative control peptide]
difference in HUVEC adhesion between IgG isotype control and alpha-4 integrin blocking antibody treated cells (HUVEC [2]): not statistically significant | HUVEC adhesion compared with RGES control (HUVEC [3]): essentially equivalent | difference in HCAEC adhesion between IgG isotype control and alpha-4 integrin blocking antibody treated cells (HCAEC [4]): not statistically significant | HCAEC adhesion compared with RGES control (HCAEC [1]): essentially equivalent

FITC-conjugated mouse monoclonal IgG1 anti-human alpha-4 integrin (CD49d, clone BU49) (Chemicon International) (antibody)
percent of cell population positive [5]: 75% | percent of cell population positive [6]: 40% | percent of cell population positive [7]: 10%

RGDS (listed as Homo sapiens) [integrin-mediated cell adhesion peptide, positive control]
difference in HUVEC adhesion between IgG isotype control and alpha-4 integrin blocking antibody treated cells (HUVEC [2]): not statistically significant | difference in HCAEC adhesion between IgG isotype control and alpha-4 integrin blocking antibody treated cells (HCAEC [4]): not statistically significant

type I human collagen: human type I collagen (Sigma), extracellular matrix protein
non-activated platelet adhesion and thrombus formation (DiOC6 images) (human platelets [8]; non-activated platelets): quite vigorous, with clear evidence of multiple organized thrombi | thrombin-activated platelet adhesion and thrombus formation (DiOC6 images) (human platelets [8]; platelets activated prior to flow): mimicked the non-activated counterparts | flowed platelet binding (51Cr), both states of activation (human platelets [9]): significantly increased binding

DELPQLVTLPHPNLHGPEILDVPST
HCAEC adhesion to immobilized peptide, fold relative to control peptide RGES (crystal violet, A562) [10]: 1.6 fold | HUVEC adhesion to immobilized peptide, fold relative to control peptide RGES (crystal violet, A562) [10]: ~4 fold | percent more of the total HCAEC population adhered, relative to RGES [10]: ~20% | percent more of the total HUVEC population adhered, relative to RGES [10]: ~25%
